One compound from PMC10983001, “Development of Cytotoxic GW7604-Zeise’s Salt Conjugates as Multitarget Compounds with Selectivity for Estrogen Receptor- Positive Tumor Cells” (Journal of Medicinal Chemistry, 2024) can be followed below.

A value given as a limit tells only on which side of the number the result lay.

Data set [1] deals with 5′-guanosine monophosphate (5′-GMP). The experiment in a line: Reaction with 5′-GMP (ESI-HR-MS). The following applies: 100 μM, MeOH/water 80/20, 5 min. Type of data set: binding. The method, then:
Thereto, GW7604-Pent-PtCl3 was incubated in a 1:1 ratio with 5′-GMP in a MeOH/water mixture [80/20, (v/v)], and the reaction products were identified by ESI-HR-MS after 5 min and 24 h.
GW7604-Pent-PtCl3 dissolved in MeOH was combined with an aqueous solution of 5′-GMP (disodium salt) to get an [80/20 (v/v)] solution with a complex concentration of 1 mM and a complex/5′-GMP proportion of 1/1.1. The mixture was diluted %1/10 (v/v)] with MeOH/water [80/20 (v/v)], reaching a final complex concentration of 100 μM, and ESI-HR-MS spectra were recorded after 5 min and 24 h. The obtained spectra were analyzed with MestreNova v14.

In another data set the test system is plasmid pSport1. The data set is described as follows: DNA interference assay (gel electrophoresis). Type of data set: binding. The following applies: 20 μM, 4 h, 37 °C. The protocol: Therefore, the general possibility of DNA interaction was examined by incubating the complex with the empty plasmid pSport1 at a concentration of 20 μM for 4 h at 37 °C. The gel electrophoretic separation[60] […] The ladder structure differs from both the untreated sample (Figure 9A) and the solvent control (Figure 9B) and is similar to that of Cisplatin (Figure 9C).
Two μL (conc. 0.5 μg/μL) of an empty pSport1 (4109 base pairs) plasmid was mixed with 2 μL of each test compound (200 μM in DMF) and diluted with 16 μL of nuclease-free water to reach a final concentration of 20 μM for GW7604-Pent-PtCl3 and […] for Cisplatin. Afterward, this mixture was incubated for 4 h at 37 °C under gentle shaking. Samples were loaded with gel loading buffer on agarose gel [0.5% (w/v) in 1 × TRIS-acetate-EDTA (TAE) buffer + 0.004% Midori Green Advance]. The following running parameters were used: 95 min at 3 V/cm in 1 × TAE buffer. Images were visualized under UV light (254 nm).

Another data set deals with SKBr3 cells. The experiment in a line: Cellular uptake (platinum by HR-CS-AAS), SKBr3. The data set is classed as cell-based, human. The following applies: 8 h. The protocol: In order to reach the DNA, the complexes must first pass through the cell membrane and penetrate into the nuclei. Therefore, the cellular uptake kinetics of GW7604-Alk-PtCl3 complexes were studied using the example of GW7604-Pent-PtCl3. This complex and Cisplatin, respectively, were incubated at a concentration of 20 μM with MCF-7 or SKBr3 cells. After various time points [i.e., 0 (3 min), 0.5, 1, 2, 4, and 8 h], cell pellets were prepared, and the platinum content was quantified by high-resolution continuum source atomic absorption spectrometry (HR-CS-AAS).[52]
After thawing of the cell/nuclei pellets, they were resuspended in ultrapure water (Siemens LaboStar, Günzburg, Germany; 300 μL) and lyzed with a sonotrode (Bandelin Sonoplus, Berlin, Germany; parameters 20 s, 9 cycles, 80% power). Graphite furnace (GF) AAS was used to quantify the lysates concerning their content of platinum (λ = 265.9450 nm). For this purpose, a contrAA 700 High-Resolution-Continous Source AAS (Analytik Jena, Jena, Germany) was employed, while atomization took place by electrothermal heating of graphite tubes with an inserted platform (Analytik Jena, Jena, Germany). A time–temperature program reported in the literature[25] was followed with minor adjustments. The liquid samples kept in 0.5 mL polystyrene vials (Gesellschaft für Analysentechnik, Salzwedel, Germany) were injected directly into the pyrolytically coated tubes using an MPE 60 autosampler (Analytik Jena, Jena, Germany). Throughout the measurements, argon (Alphagaz 1, 99.999%, Air Liquide, Düsseldorf, Germany) served as the purge and protective gas. The spectrometer was monitored with the ASpect CS software, version 2.3.1.0 (Analytik Jena, Jena, Germany). For all runs, the mean integrated absorbance was determined after three injections of each standard or sample. Calibration was performed by an appropriate dilution of a solution of Cisplatin (Sigma-Aldrich, Taufkirchen, Germany) obtaining five standards (2–10 μg/L, R^2 ≥ 0.982). Each cell/nuclei lysate was quantified concerning its protein content following the method of Bradford[71] in order to express the uptake as the amount of compound (pmol) in the lysate relative to its protein mass (mg). Therefore, solutions of Albumin fraction V (Carl Roth, Karlsruhe, Germany) diluted with ultrapure water were adduced for the calibration (six standards, 50–300 μg/mL, R^2 ≥ 0.996). […] All standards and lysates were measured in duplicate. After incubating for 5 min at rt, the absorbance (λ = 595 nm) was read on a microplate reader (Tecan Safire 2, Männedorf, Switzerland). […]

For data set [2] the following is noted: 30 μM, DMEM + 10% FCS, 37 °C, dark.
Description: After protein precipitation with ice-cold methanol (MeOH), the compounds remaining in solution were analyzed by HPLC and electrospray ionization high-resolution mass spectrometry (ESI-HR-MS).
The solution was then incubated for 4 h at 37 °C in the dark. Proteins were precipitated upon addition of 33 mL of ice-cold MeOH, and the mixture was stored for 2 h at −20 °C. The supernatant was then separated by centrifugation (3000 rpm), collected, and dried by lyophilization. The lyophilizate was extracted three times with 5 mL of MeOH and finally dried under reduced pressure. The residue was taken up in 1 mL of HPLC-grade MeOH, and 30 μL thereof was analyzed by HPLC and ESI-HR-MS.

For the compound `CCC(=C(c1ccc(O)cc1)c1ccc(C=CC(=O)OCCC[CH]2[CH2][Pt-]2([Cl])([Cl])[Cl])cc1)c1ccccc1.[K+]` (mixture of isomers) [GW7604-Pent-PtCl3, Potassium trichlorido[η^2-(pent-4-en-1-yl (E)-3-(4-((E/Z)-1-(4-hydroxyphenyl)-2-phenylbut-1-en-1-yl)phenyl)acrylate)]platinate(II)], the “adduct formation with 5′-GMP” value in data set [1] was 5′-GMP-platinum adducts were present. Moreover, the “interaction with plasmid DNA” value in the data set with plasmid pSport1 is given as “binds to DNA”. The “platinum amount in SKBr3 relative to MCF-7 cells” value in the data set on SKBr3 cells (20 μM) was “about one-twelfth”. The compound further showed an intracellular platinum amount in the data set with SKBr3 cells (SKBr3, 20 μM) of 67 pmol/mg. For the same compound, the “time to complete degradation in cell culture medium” value in data set [2] is reported as not above 4 h.
